The text below walks through data of patent US20230233425A1, “USE OF VOLATILE COMPOSITIONS TO LIMIT OR ELIMINATE THE PERCEPTION OF MALODOR” (Firmenich SA, priority 2017, published 2023).

pIC50: −log10 of the molar value. Marks after values point to notes of the source that are not given here.

Test [1] concerns geonol malodor (earthy/moss odor) perception. Briefly: Sensory evaluation of geonol earthy/moss odor in iso-intense binary mixtures (glass jars). Conditions: iso-intense binary mixture. The class given is in vivo, human. An excerpt: (§1) Sensory Evaluation: Five 16 oz glass jars containing either REF (geonol only), geonol only control, antagonist only, mixture of geonol and isointense antagonist, or mixture of geonol and low intensity antagonist were presented to the panelists (last four samples were randomized across panelists). The panelists were asked to familiarize themselves with the earthy/moss odor quality from the REF jar first, then rate the pleasantness, earthy/moss odor intensity and overall odor intensity of the next four samples on a 0-10 linear scale. The inter-stimulus interval between the samples was two minutes to avoid adaptation.

Test [2] has as its system 1-octen-3-ol mushroom/earthy/fungal odor perception. Briefly: Human sensory performance of test compounds with and without 1-octen-3-ol. The class given is in vivo. Conditions: for % Mushroom/Earthy/Fungal Odor: Test Compound Only.
In test [3] the test system is OR11A1, or the OR2M3 olfactory receptor. Briefly: Geonol olfactory receptor antagonist cell-based screening, inhibitory dose-response vs geonol EC80. The following applies: geonol at EC80; for pIC50: read-out: IC50. Details: species or system human.
Test [4] deals with geonol earthy/moss odor perception. In words: Human sensory performance of test compounds with and without geonol. The class given is in vivo. The following applies: for % Earthy/Moss Odor: Test Compound Only.
Description: as §1, with “adaptation. […]” for “adaptation.”
The results are shown in Tables 16 and 17, and FIGS. 3 to 5.

In test [5] the test system is 1-octen-3-ol receptors OR2W1, Olfr93, Olfr120, Olfr398. In words: Antagonists of 1-octen-3-ol receptors (Example 11). The class given is cell-based, mouse and human. Set-up: Inhibition(%): concentration or dose not given beside the values. The following applies: Table 19.
Test [6] has as its target T1, OR51E1 olfactory receptor (Homo sapiens, UniProt Q8TCB6).
T1 construct: expressed in transfected cells
T1 sequence (Q8TCB6 1-318): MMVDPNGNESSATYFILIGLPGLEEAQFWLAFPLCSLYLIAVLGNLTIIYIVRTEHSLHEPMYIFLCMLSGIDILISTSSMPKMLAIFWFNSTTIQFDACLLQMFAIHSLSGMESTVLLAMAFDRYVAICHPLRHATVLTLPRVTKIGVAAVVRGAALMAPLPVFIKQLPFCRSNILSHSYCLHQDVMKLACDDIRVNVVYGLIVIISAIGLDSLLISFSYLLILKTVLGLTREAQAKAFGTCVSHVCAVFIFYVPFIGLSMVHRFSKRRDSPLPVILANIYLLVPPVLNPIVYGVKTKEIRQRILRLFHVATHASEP
In words: Butyric acid olfactory receptor antagonist cell-based dose-response vs butyric acid EC80. Conditions: butyric acid at EC80; Table 5.

Test [7] deals with OR2W1 or the OR1A1 olfactory receptor. Briefly: 1-octen-3-ol olfactory receptor antagonist cell-based dose-response vs 1-octen-3-ol EC80.
Description: Each cell line was screened with a volatile compound library for their inhibitory properties and potential 1-octen-3-ol smell inhibition.
Single concentration monitoring of the 1-octen-3-ol induced cell activity in the presence or absence of a test compound allowed for the identification of compounds with a putative suppression or inhibitory effect.

With `CC=Cc1ccc(OCC)c(O)c1` [Compound 2-ethoxy-5-prop-1-enylphenol, 2-ethoxy-5-prop-1-enylphenol], the “% Remaining in human sensory tests” value in test [1] is 34* %. For the same molecule, in test [2], the “% Mushroom/Earthy/Fungal Odor” value amounted to 23.20%. In test [3], the % Inhibition (usually the drop in the measured response relative to a control, in per cent) was 33% and the pIC50 (as a rule, the IC50 on a negative log10 scale, so that one unit is a factor of ten) was 3.95. The “% Earthy/Moss Odor” value in test [4] is 27.10%.

Consider `O=C1CCC=CCCCCCCCCCC1` [cyclopentadec-4-en-1-one], for which the “% Remaining in human sensory tests” value in test [1] is 47%. For the same molecule, the “% Mushroom/Earthy/Fungal Odor” value in test [2] is reported as 25.80%. Moreover, in test [5], the pIC50 is 4.24 and the “Inhibition(%)” value came out at 130%. In addition, in test [3], the “% Inhibition” value was 45% and the pIC50 is 4.21. Also, the “% Earthy/Moss Odor” value in test [4] is 49.90%.

Consider `CC=CC(=O)C1C(C)C=CCC1(C)C` (centres unmarked) [1-(2,6,6-trimethyl-1-cyclohex-3-enyl)but-2-en-1-one], for which the “% Remaining in human sensory tests” value in test [1] is listed as 66* %. In addition, the “% Mushroom/Earthy/Fungal Odor” value in test [2] stood at 24.00%. In test [6], this molecule showed a pIC50 of 3.68. For the same molecule, in test [3], the “% Inhibition” value worked out at 10% and the pIC50 was 3.52. The “% Earthy/Moss Odor” value in test [4] was determined as 31.80%.

As to “1,4,8-trimethyl-13-oxabicyclo[10.1.0]trideca-4,8-diene; 1,5,8-trimethyl-13-oxabicyclo[10.1.0]trideca-4,8-diene”, the pIC50 in test [7] (1-octen-3-ol at EC80) is 3.57; in test [3], 4.09. Also, the entries for the “% Inhibition” value in test [7] (maximum inhibition normalized to baseline agonist activity) and in test [3] were 70.92% and 50%, respectively. In test [1], the “% Remaining in human sensory tests” value turned out to be 85%. Besides, the “% Mushroom/Earthy/Fungal Odor Remaining” value in test [2] (Low Dilution Test Compound + 1-octen-3-ol (0.15%)) was found to be 93.80%; in test [2] (Medium Dilution Test Compound + 1-octen-3-ol (0.15%)) it was 79.50%. Also, the “% Mushroom/Earthy/Fungal Odor” value in test [2] is recorded as 30.20%. The “% Earthy/Moss Odor Remaining” value in test [4] (Low Dilution Test Compound + Geonol (0.1%)) turned out to be 92.00%; in test [4] (Medium Dilution Test Compound + Geonol (0.1%)), 91.50%. Also, the “% Earthy/Moss Odor” value in test [4] came out at 43.30%.
